Test results reported in ChEMBL document CHEMBL1201862, “PubChem BioAssay data set” (2004).
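Growth conditions: 96-well plates. Treatment: test compound, 48 hours, 5 concentrations. Analysis: linear interpolation between bracketing concentrations; unreached endpoints set to highest concentration. At the GI50, growth is halved.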 Calls of active or inactive are those of the source. Cut-off read from the data, not from the text of the source: active = GI50 up to about 1.1 µM and inactive = higher.

Assays:
Experiment in all cases: NCI anticancer screen, dose series, 48 h
786-0 = tested on: 786-0
A498 = tested on: A498
A549 = tested on: A549
ACHN = tested on: ACHN
BT-549 = tested on: BT-549
CAKI-1 = tested on: CAKI-1
COLO 205 = tested on: COLO 205
DU-145 = tested on: DU-145
EKVX = tested on: EKVX
HCT-116 = tested on: HCT-116
HCT-15 = tested on: HCT-15
HL-60 = tested on: HL-60
HOP-62 = tested on: HOP-62
HOP-92 = tested on: HOP-92
HT-29 = tested on: HT-29
Hs-578T = tested on: Hs-578T
IGROV-1 = tested on: IGROV-1
K562 = tested on: K562
KM12 = tested on: KM12
LOX IMVI = tested on: LOX IMVI
M14 = tested on: M14
MCF7 = tested on: MCF7
MDA-MB-231 = tested on: MDA-MB-231
MDA-MB-435 = tested on: MDA-MB-435
MDA-N = tested on: MDA-N
MOLT-4 = tested on: MOLT-4
Malme-3M = tested on: Malme-3M
NCI-H226 = tested on: NCI-H226
NCI-H23 = tested on: NCI-H23
NCI-H522 = tested on: NCI-H522
NCI/ADR-RES = tested on: NCI/ADR-RES
OVCAR-3 = tested on: OVCAR-3
OVCAR-4 = tested on: OVCAR-4
OVCAR-5 = tested on: OVCAR-5
OVCAR-8 = tested on: OVCAR-8
PC-3 = tested on: PC-3
RPMI-8226 = tested on: RPMI-8226
RXF 393 = tested on: RXF 393
SF-268 = tested on: SF-268
SF-295 = tested on: SF-295
SK-MEL-28 = tested on: SK-MEL-28
SK-MEL-2 = tested on: SK-MEL-2
SK-MEL-5 = tested on: SK-MEL-5
SK-OV-3 = tested on: SK-OV-3
SN12C = tested on: SN12C
SNB-19 = tested on: SNB-19
SR = tested on: SR
SW-620 = tested on: SW-620
T47D = tested on: T47D
TK-10 = tested on: TK-10
U-251 = tested on: U-251
UACC-257 = tested on: UACC-257
UACC-62 = tested on: UACC-62
UO-31 = tested on: UO-31
CCRF-CEM = tested on: CCRF-CEM
HCC 2998 = tested on: HCC 2998
NCI-H460 = tested on: NCI-H460
SF-539 = tested on: SF-539
SNB-75 = tested on: SNB-75

SMILES: COC(=O)C(NC(=O)OC(C)(C)C)P(=O)(OC)OC (stereo not given)
- GI50 (786-0): > 100 µM (inactive)
- GI50 (A498): > 100 µM (inactive)
- GI50 (A549): > 100 µM (inactive)
- GI50 (ACHN): > 100 µM (inactive)
- GI50 (BT-549): > 100 µM (inactive)
- GI50 (CAKI-1): > 100 µM (inactive)
- GI50 (COLO 205): > 100 µM (inactive)
- GI50 (DU-145): > 100 µM (inactive)
- GI50 (EKVX): > 100 µM (inactive)
- GI50 (HCT-116): > 100 µM (inactive)
- GI50 (HCT-15): > 100 µM
- GI50 (HL-60): > 100 µM (inactive)
- GI50 (HOP-62): > 100 µM (inactive)
- GI50 (HOP-92): > 100 µM (inactive)
- GI50 (HT-29): > 100 µM (inactive)
- GI50 (Hs-578T): > 100 µM (inactive)
- GI50 (IGROV-1): > 100 µM (inactive)
- GI50 (K562): > 100 µM (inactive)
- GI50 (KM12): > 100 µM (inactive)
- GI50 (LOX IMVI): > 100 µM (inactive)
- GI50 (M14): > 100 µM (inactive)
- GI50 (MCF7): > 100 µM (inactive)
- GI50 (MDA-MB-231): > 100 µM (inactive)
- GI50 (MDA-MB-435): > 100 µM (inactive)
- GI50 (MDA-N): > 100 µM (inactive)
- GI50 (MOLT-4): > 100 µM (inactive)
- GI50 (Malme-3M): > 100 µM (inactive)
- GI50 (NCI-H226): > 100 µM (inactive)
- GI50 (NCI-H23): > 100 µM (inactive)
- GI50 (NCI-H522): > 100 µM (inactive)
- GI50 (NCI/ADR-RES): > 100 µM (inactive)
- GI50 (OVCAR-3): > 100 µM (inactive)
- GI50 (OVCAR-4): > 100 µM (inactive)
- GI50 (OVCAR-5): > 100 µM (inactive)
- GI50 (OVCAR-8): > 100 µM (inactive)
- GI50 (PC-3): > 100 µM (inactive)
- GI50 (RPMI-8226): > 100 µM (inactive)
- GI50 (RXF 393): > 100 µM (inactive)
- GI50 (SF-268): > 100 µM (inactive)
- GI50 (SF-295): > 100 µM (inactive)
- GI50 (SK-MEL-28): > 100 µM (inactive)
- GI50 (SK-MEL-2): > 100 µM (inactive)
- GI50 (SK-MEL-5): > 100 µM (inactive)
- GI50 (SK-OV-3): > 100 µM (inactive)
- GI50 (SN12C): > 100 µM (inactive)
- GI50 (SNB-19): > 100 µM (inactive)
- GI50 (SR): > 100 µM (inactive)
- GI50 (SW-620): > 100 µM (inactive)
- GI50 (T47D): > 100 µM (inactive)
- GI50 (TK-10): > 100 µM (inactive)
- GI50 (U-251): > 100 µM (inactive)
- GI50 (UACC-257): > 100 µM (inactive)
- GI50 (UACC-62): > 100 µM (inactive)
- GI50 (UO-31): > 100 µM (inactive)

SMILES: COC(=O)c1c2c(c3[nH]c4ccccc4c3c1C(=O)OC)C(=O)C1=C(C2=O)C2(Cl)C(Cl)C(Cl)C1(Cl)C2(Cl)Cl (stereo not given)
- GI50 (786-0): 2.68 µM (inactive)
- GI50 (A498): 0.432 µM (active)
- GI50 (A549): 3.21 µM (inactive)
- GI50 (ACHN): 1.92 µM (inactive)
- GI50 (BT-549): 1.96 µM (inactive)
- GI50 (CAKI-1): 3.18 µM (inactive)
- GI50 (CCRF-CEM): 1.89 µM (inactive)
- GI50 (COLO 205): 1.81 µM (inactive)
- GI50 (DU-145): 2.07 µM (inactive)
- GI50 (EKVX): 3.92 µM (inactive)
- GI50 (HCC 2998): 2.91 µM (inactive)
- GI50 (HCT-116): 2.02 µM (inactive)
- GI50 (HCT-15): 1.48 µM
- GI50 (HL-60): 2.29 µM (inactive)
- GI50 (HOP-62): 3.76 µM (inactive)
- GI50 (HOP-92): 1.77 µM (inactive)
- GI50 (HT-29): 2.55 µM (inactive)
- GI50 (Hs-578T): 3.13 µM (inactive)
- GI50 (IGROV-1): 2.69 µM (inactive)
- GI50 (K562): 2.01 µM (inactive)
- GI50 (KM12): 2.54 µM (inactive)
- GI50 (LOX IMVI): 1.85 µM (inactive)
- GI50 (M14): 1.46 µM (inactive)
- GI50 (MCF7): 0.705 µM (active)
- GI50 (MDA-MB-231): 1.85 µM (inactive)
- GI50 (MDA-MB-435): 1.07 µM (active)
- GI50 (MDA-N): 0.6 µM (active)
- GI50 (MOLT-4): 1.17 µM (inactive)
- GI50 (Malme-3M): 1.82 µM (inactive)
- GI50 (NCI-H23): 1.7 µM (inactive)
- GI50 (NCI-H460): 3.2 µM (inactive)
- GI50 (NCI-H522): 1.38 µM (inactive)
- GI50 (NCI/ADR-RES): 2.62 µM (inactive)
- GI50 (OVCAR-3): 2.33 µM (inactive)
- GI50 (OVCAR-4): 1.84 µM (inactive)
- GI50 (OVCAR-5): 4.69 µM (inactive)
- GI50 (OVCAR-8): 1.75 µM (inactive)
- GI50 (PC-3): 1.86 µM (inactive)
- GI50 (RPMI-8226): 1.19 µM (inactive)
- GI50 (RXF 393): 1.71 µM (inactive)
- GI50 (SF-268): 0.436 µM (active)
- GI50 (SF-295): 3.63 µM (inactive)
- GI50 (SF-539): 2.07 µM (inactive)
- GI50 (SK-MEL-28): 1.56 µM (inactive)
- GI50 (SK-MEL-5): 1.31 µM (inactive)
- GI50 (SK-OV-3): 4.36 µM (inactive)
- GI50 (SN12C): 1.94 µM (inactive)
- GI50 (SNB-19): 3.4 µM (inactive)
- GI50 (SNB-75): 2.39 µM (inactive)
- GI50 (SR): 0.489 µM (active)
- GI50 (SW-620): 0.353 µM (active)
- GI50 (T47D): 1.35 µM (inactive)
- GI50 (TK-10): 3.56 µM (inactive)
- GI50 (U-251): 2.42 µM (inactive)
- GI50 (UACC-62): 1.99 µM (inactive)
- GI50 (UO-31): 2.82 µM (inactive)
